Test results reported in paper PMC3652012 (Neuropharmacology, 2012).
Read-outs that look alike come from different tables or passages of the source.

Experiments:
[1] = tested on: GABAA receptor-mediated IPSCs in dentate granule cells; assay: Whole-cell recording of evoked monosynaptic IPSCs in hippocampal slices; type: cell-based, rat; settings: n=5; for 50% decay time of evoked IPSC: relative to control before drug; for amplitude of evoked IPSC: relative to control, p>0.05
[2] = tested on: extra-synaptic GABAA receptors in dentate granule neurons; type: cell-based, rat; settings: CNQX, D-APV, TTX present
[3] = tested on: mIPSCs in dentate granule neurons; type: cell-based, rat; settings: 1 μM TTX
[4] = target: α1(Q240W)β3γ2 GABAA receptors (Rattus norvegicus, UniProt P18508+P62813+P63079, Q268W); assay: Whole-cell patch clamp, point-mutated receptor; type: cell-based; settings: compared to wild-type α1β3γ2
Sequence of α1(Q240W)β3γ2 GABAA receptors (P62813 28-455 Q268W): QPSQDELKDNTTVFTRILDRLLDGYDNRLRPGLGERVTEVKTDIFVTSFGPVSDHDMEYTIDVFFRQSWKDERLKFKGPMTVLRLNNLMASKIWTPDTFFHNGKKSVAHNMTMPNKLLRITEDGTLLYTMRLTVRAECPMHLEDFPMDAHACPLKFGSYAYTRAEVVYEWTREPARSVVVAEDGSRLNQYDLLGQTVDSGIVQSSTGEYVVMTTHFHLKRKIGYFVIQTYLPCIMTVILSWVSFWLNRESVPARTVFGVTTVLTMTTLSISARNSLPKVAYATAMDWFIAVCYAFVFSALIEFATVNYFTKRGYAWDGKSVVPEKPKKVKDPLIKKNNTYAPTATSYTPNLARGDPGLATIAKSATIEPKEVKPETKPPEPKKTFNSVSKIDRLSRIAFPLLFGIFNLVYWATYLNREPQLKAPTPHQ
Sequence of α1(Q240W)β3γ2 GABAA receptors (P63079 26-473): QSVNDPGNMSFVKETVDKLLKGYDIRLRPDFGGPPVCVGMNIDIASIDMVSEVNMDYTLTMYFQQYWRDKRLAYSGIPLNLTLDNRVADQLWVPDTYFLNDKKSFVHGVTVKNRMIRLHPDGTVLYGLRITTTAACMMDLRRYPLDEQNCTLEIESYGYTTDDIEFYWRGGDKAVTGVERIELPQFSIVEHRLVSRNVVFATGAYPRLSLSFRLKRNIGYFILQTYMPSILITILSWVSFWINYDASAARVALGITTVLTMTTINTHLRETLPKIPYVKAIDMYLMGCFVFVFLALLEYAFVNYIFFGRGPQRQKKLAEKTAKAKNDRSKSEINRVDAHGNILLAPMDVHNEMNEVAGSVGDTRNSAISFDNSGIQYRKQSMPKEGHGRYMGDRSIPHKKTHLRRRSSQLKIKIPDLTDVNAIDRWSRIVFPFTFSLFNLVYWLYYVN
Sequence of α1(Q240W)β3γ2 GABAA receptors (P18508 39-466): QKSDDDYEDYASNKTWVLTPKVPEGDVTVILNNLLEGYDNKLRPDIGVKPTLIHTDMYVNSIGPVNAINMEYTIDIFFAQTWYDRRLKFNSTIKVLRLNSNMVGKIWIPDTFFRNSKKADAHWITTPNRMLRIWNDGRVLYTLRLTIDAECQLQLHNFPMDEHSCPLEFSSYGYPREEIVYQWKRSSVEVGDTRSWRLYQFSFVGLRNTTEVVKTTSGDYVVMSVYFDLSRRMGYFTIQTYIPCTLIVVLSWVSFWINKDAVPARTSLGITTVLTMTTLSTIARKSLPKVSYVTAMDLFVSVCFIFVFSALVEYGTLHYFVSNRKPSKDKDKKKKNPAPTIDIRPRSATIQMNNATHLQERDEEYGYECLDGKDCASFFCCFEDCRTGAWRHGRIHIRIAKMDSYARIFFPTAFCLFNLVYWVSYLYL

[5] = target: α1β3(M286W)γ2 GABAA receptors (Rattus norvegicus, UniProt P18508+P62813+P63079, M311W); assay: Whole-cell patch clamp, point-mutated receptor; type: cell-based; settings: compared to wild-type α1β3γ2
Sequence of α1β3(M286W)γ2 GABAA receptors (P62813 28-455): as the sequence (P62813 28-455 Q268W) above, with W241Q counted along it
Sequence of α1β3(M286W)γ2 GABAA receptors (P63079 26-473 M311W): as the sequence (P63079 26-473) above, with M286W counted along it
Sequence of α1β3(M286W)γ2 GABAA receptors (P18508 39-466): as the sequence (P18508 39-466) above

[6] = target: α1β3(Y442W)γ2 GABAA receptors (Rattus norvegicus, UniProt P18508+P62813+P63079, Y467W); type: cell-based; settings: compared to wild-type α1β3γ2
Sequence of α1β3(Y442W)γ2 GABAA receptors (P62813 28-455): as the sequence (P62813 28-455 Q268W) above, with W241Q counted along it
Sequence of α1β3(Y442W)γ2 GABAA receptors (P63079 26-473 Y467W): as the sequence (P63079 26-473) above, with Y442W counted along it
Sequence of α1β3(Y442W)γ2 GABAA receptors (P18508 39-466): as the sequence (P18508 39-466) above

[7] = target: α1(S269I)β3γ2 GABAA receptors (Rattus norvegicus, UniProt P18508+P62813+P63079, S296I); assay: Whole-cell patch clamp, point-mutated receptor; type: cell-based; settings: compared to wild-type α1β3γ2
Sequence of α1(S269I)β3γ2 GABAA receptors (P62813 28-455 S296I): as the sequence (P62813 28-455 Q268W) above, with W241Q, S269I counted along it
Sequence of α1(S269I)β3γ2 GABAA receptors (P63079 26-473): as the sequence (P63079 26-473) above
Sequence of α1(S269I)β3γ2 GABAA receptors (P18508 39-466): as the sequence (P18508 39-466) above

[8] = target: α1(Y410W)β3γ2 GABAA receptors (Rattus norvegicus, UniProt P18508+P62813+P63079, Y437W); assay: Whole-cell patch clamp, point-mutated receptor; type: cell-based; settings: compared to wild-type α1β3γ2
Sequence of α1(Y410W)β3γ2 GABAA receptors (P62813 28-455 Y437W): as the sequence (P62813 28-455 Q268W) above, with W241Q, Y410W counted along it
Sequence of α1(Y410W)β3γ2 GABAA receptors (P63079 26-473): as the sequence (P63079 26-473) above
Sequence of α1(Y410W)β3γ2 GABAA receptors (P18508 39-466): as the sequence (P18508 39-466) above

[9] = target: α1(T260F)β3γ2 GABAA receptors (Rattus norvegicus, UniProt P18508+P62813+P63079, T287F); assay: Whole-cell patch clamp, point-mutated receptor; type: cell-based; settings: compared to wild-type α1β3γ2
Sequence of α1(T260F)β3γ2 GABAA receptors (P62813 28-455 T287F): as the sequence (P62813 28-455 Q268W) above, with W241Q, T260F counted along it
Sequence of α1(T260F)β3γ2 GABAA receptors (P63079 26-473, stated change not applied): as the sequence (P63079 26-473) above
Sequence of α1(T260F)β3γ2 GABAA receptors (P18508 39-466): as the sequence (P18508 39-466) above

[10] = target: α1β3(T256F)γ2 GABAA receptors (Rattus norvegicus, UniProt P18508+P62813+P63079, T281F); assay: Whole-cell patch clamp, point-mutated receptor; type: cell-based; settings: compared to wild-type α1β3γ2
Sequence of α1β3(T256F)γ2 GABAA receptors (P62813 28-455, stated change not applied): as the sequence (P62813 28-455 Q268W) above, with W241Q counted along it
Sequence of α1β3(T256F)γ2 GABAA receptors (P63079 26-473 T281F): as the sequence (P63079 26-473) above, with T256F counted along it
Sequence of α1β3(T256F)γ2 GABAA receptors (P18508 39-466): as the sequence (P18508 39-466) above

GABAA receptors = assay: Direct activation of GABAA receptors in the absence of GABA; type: cell-based
[11] = target: T1, recombinant α1β3γ2 GABAA receptors (Rattus norvegicus, UniProt P18508+P62813+P63079); assay: Whole-cell patch clamp of transfected HEK-293T cells; settings: for effect on peak amplitude of the response to saturating GABA: 10 μM modulator with 1 mM GABA, whole-cell; for effect on peak amplitude of the response to saturating GABA / maximum enhancement of the GABA response: −50 mV; for maximum enhancement of the GABA response: co-applied 5 sec with EC5–10 GABA (1 μM), response to GABA alone = 100%
T1 sequence (P62813 28-455): as the sequence (P62813 28-455 Q268W) above, with W241Q counted along it
T1 sequence (P63079 26-473): as the sequence (P63079 26-473) above
T1 sequence (P18508 39-466): as the sequence (P18508 39-466) above

[12] = target: recombinant α1β3δ GABAA receptors (Rattus norvegicus, UniProt P18506+P62813+P63079); assay: as above; settings: for effect on peak response to saturating GABA: 10 μM modulator with 1 mM GABA, whole-cell, −50 mV
Sequence of recombinant α1β3δ GABAA receptors (P62813 28-455): as the sequence (P62813 28-455 Q268W) above, with W241Q counted along it
Sequence of recombinant α1β3δ GABAA receptors (P63079 26-473): as the sequence (P63079 26-473) above
Sequence of recombinant α1β3δ GABAA receptors (P18506 17-449 limits assumed): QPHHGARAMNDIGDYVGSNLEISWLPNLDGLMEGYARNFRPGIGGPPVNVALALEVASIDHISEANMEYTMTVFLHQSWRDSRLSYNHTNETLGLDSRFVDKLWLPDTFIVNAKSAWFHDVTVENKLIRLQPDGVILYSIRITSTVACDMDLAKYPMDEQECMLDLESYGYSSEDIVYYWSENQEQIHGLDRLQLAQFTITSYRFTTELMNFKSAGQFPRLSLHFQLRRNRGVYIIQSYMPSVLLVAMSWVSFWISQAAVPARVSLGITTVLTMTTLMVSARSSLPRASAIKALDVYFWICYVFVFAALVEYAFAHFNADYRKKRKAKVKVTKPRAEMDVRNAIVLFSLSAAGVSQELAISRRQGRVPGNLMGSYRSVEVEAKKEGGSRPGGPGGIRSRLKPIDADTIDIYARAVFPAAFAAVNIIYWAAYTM

[13] = target: recombinant α4β3δ GABAA receptors (Rattus norvegicus, UniProt P18506+P28471+P63079); assay: as above; settings: 10 μM co-applied with EC5–10 GABA
Sequence of recombinant α4β3δ GABAA receptors (P28471 36-552): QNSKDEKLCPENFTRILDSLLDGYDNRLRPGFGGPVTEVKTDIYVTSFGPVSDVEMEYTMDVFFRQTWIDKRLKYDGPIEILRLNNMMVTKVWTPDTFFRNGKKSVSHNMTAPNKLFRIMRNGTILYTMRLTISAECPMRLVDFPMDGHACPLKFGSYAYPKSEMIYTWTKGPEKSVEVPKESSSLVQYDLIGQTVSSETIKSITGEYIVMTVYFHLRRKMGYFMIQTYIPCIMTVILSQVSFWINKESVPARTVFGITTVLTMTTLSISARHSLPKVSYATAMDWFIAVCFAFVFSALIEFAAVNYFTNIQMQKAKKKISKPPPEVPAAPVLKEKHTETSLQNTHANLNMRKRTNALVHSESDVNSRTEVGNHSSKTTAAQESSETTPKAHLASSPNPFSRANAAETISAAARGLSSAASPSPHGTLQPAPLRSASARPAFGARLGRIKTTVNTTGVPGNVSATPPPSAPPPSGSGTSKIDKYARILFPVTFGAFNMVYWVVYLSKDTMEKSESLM
Sequence of recombinant α4β3δ GABAA receptors (P63079 26-473): as the sequence (P63079 26-473) above
Sequence of recombinant α4β3δ GABAA receptors (P18506 17-449 limits assumed): as the sequence (P18506 17-449 limits assumed) above

[14] = target: recombinant α1β3 GABAA receptors (Rattus norvegicus, UniProt P62813+P63079); assay: as above; settings: 10 μM co-applied with EC5–10 GABA
Sequence of recombinant α1β3 GABAA receptors (P62813 28-455): as the sequence (P62813 28-455 Q268W) above, with W241Q counted along it
Sequence of recombinant α1β3 GABAA receptors (P63079 26-473): as the sequence (P63079 26-473) above

[15] = tested on: recombinant GABAA receptors: six α subtypes with β3 and γ2, three β subtypes with α1 and γ2, three γ subtypes with α1 and β3; assay: Whole-cell patch clamp, receptors with varying α, β or γ subtype; settings: 10 μM co-applied with EC5–10 GABA for each isoform
[16] = target: T1, recombinant α1β3γ2 GABAA receptors; assay: Outside-out macropatch recording, deactivation after brief GABA application; settings: for increase of weighted mean deactivation rate / weighted mean deactivation rate in presence of modulator: 10 μM modulator co-applied with 1 mM GABA for 5 msec, −70 mV
[17] = magnolol 30 μM (Fig 1: 30–60 μM), n=7
[18] = honokiol (Fig 1: 30–60 μM), n=6

Structure (SMILES)	impact of mutation on modulation [4]	impact of mutation on potentiation [5]	impact of mutation on potentiation [6]	impact of mutation on potentiation [7]	impact of mutation on potentiation [8]	impact of mutation on modulation [9]	impact of mutation on modulation [10]	concentration at which agonist activity (direct activation) was observed (GABAA receptors)	EC50 [11]	effect on peak amplitude of the response to saturating GABA [11]	maximum enhancement of the GABA response [11]	EC50 [12]	effect on peak response to saturating GABA [12]	enhancement of the GABA response [13]	response (potentiation) of receptors lacking γ or δ [14]	potentiation across receptor isoforms (α, β, γ subtype selectivity) [15]	increase of weighted mean deactivation rate [16]	weighted mean deactivation rate in presence of modulator [16]	other results
C=CCc1ccc(O)c(-c2cc(CC=C)ccc2O)c1 [magnolol, 5,5′-diallyl-2,2′-dihydroxybiphenyl]	no impact	retained wild-type potentiation	retained wild-type potentiation	retained wild-type potentiation	retained wild-type potentiation	neither of these mutations had any impact	neither of these mutations had any impact	above 10 μM	1240 ± 210 nM	no effect	467.6±24.6%	3.4 ± 0.7 µM	nearly doubled	large enhancement, similar to that of α1β3δ	responded to a level comparable to the γ-containing receptors	potentiated to a similar degree, with no apparent selectivity among the subtypes	171.8%	104.3 ± 16.2 ms	50% decay time of evoked IPSC ([1]; magnolol 30 μM bath applied): 267.7±7.9%; amplitude of evoked IPSC ([1]; magnolol 30 μM bath applied): 105.7±11.2%; increase of tonic GABAergic current [2, 17]: 402.5±61.7%; mIPSC amplitude ([3]; magnolol 30 μM (Fig 1: 30–60 μM)): not affected; mIPSC frequency [3, 17]: 476.2±108.5%; % area of the slower deactivation component in presence of modulator ([16]; 10 μM co-applied with 1 mM GABA for 5 msec, GABA alone 31.5±5.0): 41.8±8.1%; slow τ of deactivation in presence of modulator ([16]; 10 μM co-applied with 1 mM GABA for 5 msec, GABA alone 161.1±29.6): 228.4 ± 41.3 ms
C=CCc1ccc(O)c(-c2ccc(O)c(CC=C)c2)c1 [honokiol, 3,5′-diallyl-4,2′-dihydroxybiphenyl]	no impact	retained wild-type potentiation	retained wild-type potentiation	retained wild-type potentiation	retained wild-type potentiation	neither of these mutations had any impact	neither of these mutations had any impact	above 10 μM	1170 ± 200 nM	no effect	483.4±64.4%	3.8 ± 0.41 µM	nearly doubled	large enhancement, similar to that of α1β3δ	responded to a level comparable to the γ-containing receptors	potentiated to a similar degree, with no apparent selectivity among the subtypes	147.2%	113.5 ± 21.0 ms	50% decay time of evoked IPSC ([1]; honokiol 60 μM bath applied): 299.5±16.6%; amplitude of evoked IPSC ([1]; honokiol 60 μM bath applied): 113.3±25.0%; enhancement of tonic GABAergic current [2, 18]: 351.2±79.0%; mIPSC amplitude ([3]; honokiol (Fig 1: 30–60 μM)): not affected; mIPSC frequency [3, 18]: 378.9±46.8%
